Test system: Corn seeds (variety: Pioneer 120 31P41)
Assay: Test Example 14: growth promotion under low-temperature stress by soil drench treatment of corn
Type: in vivo
Details: Zea mays, 120 h; soil drench 20 ml, concentration tested 3 ppm; low-temperature stress 5 days at 2.5° C.; health score 0-5, average of 4 individuals; read-out: Relative value of score (%- untreated control plot)
Summary of the method: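 7-day-old corn seedlings soil-drenched with 20 ml compound solution (from 1,000× DMSO stock in water; control 0.1% DMSO), grown 2 days at 27 °C, then 5 days at 2.5 °C, then 4 days recovery at 27 °C. Health scored 1–5 by number of leaves ≥⅔ healthy; mean of 4 plants.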

Which change in vivo at 3 ppm does the source give for COC(=O)c1nc2cc(C(F)(F)F)ccc2o1 [Compound 17, methyl 5-trifluoromethylbenzoxazole-2-carboxylate] here?
The change in vivo at 3 ppm was > 5%.

Same assay, conditions: Zea mays, 120 h; soil drench 20 ml, concentration tested 10 ppm; low-temperature stress 5 days at 2.5° C.; health score 0-5, average of 4 individuals; read-out: Relative value of score (%- untreated control plot)

Which change in vivo at 10 ppm does the source give for O=C(O)c1oc2ccccc2c1C(F)(F)F [Compound 82] here?
Its change in vivo at 10 ppm is > 5%.

Which change in vivo at 10 ppm does the source give for COC(=O)c1oc2ccc(C(F)(F)F)cc2c1O [Compound 50] here?
Its change in vivo at 10 ppm is > 5%.

Which change in vivo at 10 ppm does the source give for COC(=O)c1cc2ccccc2o1 [Compound 1] here?
The change in vivo at 10 ppm was > 5%.

How did the change in vivo at 10 ppm turn out when COC(=O)c1cc2cc(C(F)(F)F)ccc2o1 [Compound 3, methyl 5-(trifluoromethyl)benzofuran-2-carboxylate] was run?
Its change in vivo at 10 ppm is > 5%.

Which change in vivo at 10 ppm does the source give for COC(=O)c1cc2c(C(F)(F)F)cccc2o1 [Compound 45] here?
Its change in vivo at 10 ppm is > 5%.

How did the change in vivo at 10 ppm turn out when Cc1c(C(=O)O)oc2ccc(C(F)(F)F)cc12 [Compound 34] was run?
Its change in vivo at 10 ppm is > 5%.

For NC(=O)c1oc2ccccc2c1C(F)(F)F [Compound 85], which change in vivo at 10 ppm is on record?
Its change in vivo at 10 ppm is > 5%.

Test system: Nicotiana benthamiana
Assay: Test Example 5: growth promotion under low-temperature stress by hydroponics of Nicotiana benthamiana, 1 ppm
Type: in vivo
Details: 1 ppm in medium, low-temperature stress 7 days at 1.5±1.0° C., green leaf area 3 days later, equation (1)
Summary of the method: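 Seeds were grown in half-strength Murashige–Skoog medium (pH 5.8) containing 1 ppm compound for 7 days at 22 °C, then chilled 7 days at 1.5±1.0 °C and recovered 3 days at 22 °C. Green leaf area was imaged. Relative leaf area = 100×(treated − untreated)/(unstressed untreated − stressed untreated).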

Which relative leaf area (% of untreated control) at 1 ppm does the source give for COC(=O)c1oc2ccccc2c1C(F)(F)F [Compound 83] here?
Its relative leaf area (% of untreated control) at 1 ppm is ≥ 5%.

How did the relative leaf area (% of untreated control) at 1 ppm turn out when O=C(NCc1ccccc1)c1oc2ccc(C(F)(F)F)cc2c1C(F)(F)F [Compound 77] was run?
The relative leaf area (% of untreated control) at 1 ppm was ≥ 5%.

Which relative leaf area (% of untreated control) at 1 ppm does the source give for O=C(O)c1oc2ccccc2c1C(F)(F)F [Compound 82] here?
The relative leaf area (% of untreated control) at 1 ppm was ≥ 5%.

For O=C(Nc1ccccc1)c1cc2cc(C(F)(F)F)ccc2o1 [Compound 53], which relative leaf area (% of untreated control) at 1 ppm is on record?
Its relative leaf area (% of untreated control) at 1 ppm is ≥ 5%.

With Cc1c(C(=O)O)oc2ccccc12 [Compound 36] as the compound, how does the relative leaf area (% of untreated control) at 1 ppm read?
Its relative leaf area (% of untreated control) at 1 ppm is ≥ 5%.

With COC(=O)c1oc2ccc(C(F)(F)F)cc2c1C(F)(F)F [Compound 70] as the compound, how does the relative leaf area (% of untreated control) at 1 ppm read?
Its relative leaf area (% of untreated control) at 1 ppm is ≥ 5%.

NC(=O)c1cc2cc(C(F)(F)F)ccc2o1 [Compound 51] was tested. Which relative leaf area (% of untreated control) at 1 ppm did it give?
Its relative leaf area (% of untreated control) at 1 ppm is ≥ 5%.

With O=C(O)c1oc2ccc(C(F)(F)F)cc2c1C(F)(F)F [Compound 69] as the compound, how does the relative leaf area (% of untreated control) at 1 ppm read?
The relative leaf area (% of untreated control) at 1 ppm was ≥ 5%.

Which relative leaf area (% of untreated control) at 1 ppm does the source give for NC(=O)c1oc2ccc(C(F)(F)F)cc2c1C(F)(F)F [Compound 74] here?
Its relative leaf area (% of untreated control) at 1 ppm is ≥ 5%.

Which relative leaf area (% of untreated control) at 1 ppm does the source give for O=C(O)c1nc2c(F)cc(F)cc2s1 [Compound 86] here?
The relative leaf area (% of untreated control) at 1 ppm was ≥ 5%.

For O=C(OCc1ccccc1)c1cc2cc(C(F)(F)F)ccc2o1 [Compound 56], which relative leaf area (% of untreated control) at 1 ppm is on record?
Its relative leaf area (% of untreated control) at 1 ppm is ≥ 5%.

With O=C(Oc1ccccc1)c1cc2cc(C(F)(F)F)ccc2o1 [Compound 55] as the compound, how does the relative leaf area (% of untreated control) at 1 ppm read?
Its relative leaf area (% of untreated control) at 1 ppm is ≥ 5%.

How did the relative leaf area (% of untreated control) at 1 ppm turn out when COC(=O)c1oc2ccc(C(F)(F)F)cc2c1N(C(C)=O)C(C)=O [Compound 64] was run?
Its relative leaf area (% of untreated control) at 1 ppm is ≥ 5%.

How did the relative leaf area (% of untreated control) at 1 ppm turn out when COC(=O)c1nc2cc(C(F)(F)F)ccc2o1 [Compound 17, methyl 5-trifluoromethylbenzoxazole-2-carboxylate] was run?
The relative leaf area (% of untreated control) at 1 ppm was ≥ 5%.

With COC(=O)c1oc2ccccc2c1C [Compound 37] as the compound, how does the relative leaf area (% of untreated control) at 1 ppm read?
The relative leaf area (% of untreated control) at 1 ppm was ≥ 5%.

How did the relative leaf area (% of untreated control) at 1 ppm turn out when Cc1c(C(=O)O)oc2ccc(C(F)(F)F)cc12 [Compound 34] was run?
The relative leaf area (% of untreated control) at 1 ppm was ≥ 5%.

With CNC(=O)c1cc2cc(C(F)(F)F)ccc2o1 [Compound 52] as the compound, how does the relative leaf area (% of untreated control) at 1 ppm read?
The relative leaf area (% of untreated control) at 1 ppm was ≥ 5%.

Which relative leaf area (% of untreated control) at 1 ppm does the source give for COC(=O)c1oc2ccc(C(F)(F)F)cc2c1NC(=O)C(F)(F)F [Compound 65] here?
The relative leaf area (% of untreated control) at 1 ppm was ≥ 5%.

Which relative leaf area (% of untreated control) at 1 ppm does the source give for COC(=O)c1oc2ccc(C(F)(F)F)cc2c1NS(=O)(=O)c1ccccc1 [Compound 68] here?
The relative leaf area (% of untreated control) at 1 ppm was ≥ 5%.

Reference: patent publication US20150289512A1, “METHOD FOR PROMOTING PLANT GROWTH” (SUMITOMO CHEMICAL COMPANY, LIMITED, priority 2012, published 2015)
